Assays:
Assay in all cases: relative viability (nuclei count vs DMSO), 5 days (fraction); higher = more cells survive
AZD8055 + OSI-027 = compound: COc1ccc(-c2ccc3c(N4CCOC[C@@H]4C)nc(N4CCOC[C@@H]4C)nc3n2)cc1CO [AZD8055] + COc1cccc2cc(-c3nc([C@H]4CC[C@H](C(=O)O)CC4)n4ncnc(N)c34)[nH]c12 [OSI-027] (partner 0.5 µM)
In short: (§1)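 Relative viability is defined as nuclei in treated wells over nuclei in vehicle wells. Duplicate plates were run and medians reported. Lung cancer cell lines in 1536-well plates were dosed by pin tool one day after seeding, with one drug or with a fixed anchor-drug dose plus five library-drug doses (not always all listed) in √10 steps, and nuclei were counted after 5 days.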

AZD8055 + Linsitinib = compound: COc1ccc(-c2ccc3c(N4CCOC[C@@H]4C)nc(N4CCOC[C@@H]4C)nc3n2)cc1CO [AZD8055] + C[C@]1(O)C[C@@H](c2nc(-c3ccc4ccc(-c5ccccc5)nc4c3)c3c(N)nccn32)C1 [Linsitinib] (partner 1 µM)
In short: as §1

AZD8055 + Lapatinib = compound: COc1ccc(-c2ccc3c(N4CCOC[C@@H]4C)nc(N4CCOC[C@@H]4C)nc3n2)cc1CO [AZD8055] + CS(=O)(=O)CCNCc1ccc(-c2ccc3ncnc(Nc4ccc(OCc5cccc(F)c5)c(Cl)c4)c3c2)o1 [Lapatinib] (partner 2 µM)
In short: as §1

AZD8055 + Trametinib = compound: COc1ccc(-c2ccc3c(N4CCOC[C@@H]4C)nc(N4CCOC[C@@H]4C)nc3n2)cc1CO [AZD8055] + CC(=O)Nc1cccc(-n2c(=O)n(C3CC3)c(=O)c3c(Nc4ccc(I)cc4F)n(C)c(=O)c(C)c32)c1 [Trametinib] (partner 0.02 µM)
In short: as §1

Cell Line | relative viability (AZD8055 + OSI-027; first compound 0.01 µM) | relative viability (AZD8055 + OSI-027; first compound 0.03162 µM) | relative viability (AZD8055 + OSI-027; first compound 0.1 µM) | relative viability (AZD8055 + OSI-027; first compound 0.3162 µM) | relative viability (AZD8055 + OSI-027; first compound 1 µM) | relative viability (AZD8055 + Linsitinib; first compound 0.01 µM) | relative viability (AZD8055 + Linsitinib; first compound 0.03162 µM) | relative viability (AZD8055 + Linsitinib; first compound 0.1 µM) | relative viability (AZD8055 + Linsitinib; first compound 0.3162 µM) | relative viability (AZD8055 + Linsitinib; first compound 1 µM) | relative viability (AZD8055 + Lapatinib; first compound 0.01 µM) | relative viability (AZD8055 + Lapatinib; first compound 0.03162 µM) | relative viability (AZD8055 + Lapatinib; first compound 0.1 µM) | relative viability (AZD8055 + Lapatinib; first compound 0.3162 µM) | relative viability (AZD8055 + Lapatinib; first compound 1 µM) | relative viability (AZD8055 + Trametinib; first compound 0.01 µM) | relative viability (AZD8055 + Trametinib; first compound 0.03162 µM) | relative viability (AZD8055 + Trametinib; first compound 0.1 µM) | relative viability (AZD8055 + Trametinib; first compound 0.3162 µM) | relative viability (AZD8055 + Trametinib; first compound 1 µM)
LXF-289 | 0.891 | 0.899 | 0.727 | 0.693 | 0.625 | 1 | 0.997 | 0.812 | 0.568 | 0.515 | 0.939 | 0.903 | 0.846 | 0.804 | 0.708 | 0.75 | 0.606 | 0.627 | 0.392 | 0.333
NCI-H23 | 0.673 | 0.555 | 0.626 | 0.426 | 0.323 | 0.521 | 0.484 | 0.294 | 0.244 | 0.259 | 1.15 | 0.804 | 0.792 | 0.369 | 0.35 | 0.277 | 0.314 | 0.33 | 0.227 | 0.22
NCI-H322M | 0.56 | 0.602 | 0.582 | 0.476 | 0.431 | 0.891 | 0.771 | 0.557 | 0.497 | 0.461 | 0.536 | 0.551 | 0.51 | 0.5 | 0.466 | 0.522 | 0.467 | 0.486 | 0.481 | 0.398
NCI-H358 | 0.871 | 0.708 | 0.576 | 0.29 | 0.164 | 0.728 | 0.561 | 0.429 | 0.209 | 0.236 | 0.444 | 0.41 | 0.394 | 0.254 | 0.246 | 0.144 | 0.144 | 0.116 | 0.106 | 0.116
NCI-H460 | 0.85 | 0.47 | 0.506 | 0.141 | 0.124 | 0.555 | 0.213 | 0.206 | 0.0409 | 0.0438 | 1.72 | 0.629 | 0.43 | 0.137 | 0.0984 | 0.144 | 0.129 | 0.0855 | 0.0696 | 0.0537
NCI-H520 | 0.236 | 0.254 | 0.188 | 0.184 | 0.16 | 0.954 | 0.504 | 0.198 | 0.153 | 0.164 | 0.716 | 0.344 | 0.265 | 0.142 | 0.167 | 0.581 | 0.246 | 0.267 | 0.109 | 0.137
NCI-H596 | 0.685 | 0.731 | 0.582 | 0.413 | 0.315 | 0.991 | 0.792 | 0.457 | 0.386 | 0.395 | 1 | 0.682 | 0.661 | 0.535 | 0.463 | 0.704 | 0.676 | 0.577 | 0.411 | 0.404
NCI-H647 | 0.514 | 0.624 | 0.568 | 0.315 | 0.193 | 1.18 | 0.942 | 0.601 | 0.439 | 0.167 | 1.15 | 0.565 | 0.478 | 0.192 | 0.207 | 0.538 | 0.345 | 0.322 | 0.136 | 0.127
NCI-H650 | 0.528 | 0.492 | 0.602 | 0.368 | 0.344 | 0.889 | 0.575 | 0.556 | 0.342 | 0.293 | 0.838 | 0.73 | 0.58 | 0.341 | 0.319 | 1.13 | 1.09 | 0.888 | 0.469 | 0.353
NCI-H661 | 0.782 | 0.668 | 0.575 | 0.41 | 0.341 | 0.567 | 0.41 | 0.516 | 0.253 | 0.293 | 0.434 | 0.43 | 0.414 | 0.307 | 0.256 | 0.518 | 0.426 | 0.451 | 0.31 | 0.325
NCI-H727 | 0.674 | 0.604 | 0.49 | 0.351 | 0.409 | 0.246 | 0.246 | 0.302 | 0.28 | 0.248 | 0.807 | 0.818 | 0.685 | 0.378 | 0.308 | 0.352 | 0.399 | 0.368 | 0.37 | 0.458
NCI-H838 | 0.377 | 0.404 | 0.383 | 0.262 | 0.31 | 0.664 | 0.383 | 0.32 | 0.208 | 0.25 | 1.04 | 0.656 | 0.352 | 0.237 | 0.336 | 0.499 | 0.335 | 0.279 | 0.19 | 0.201
NCI-H1355 | 0.393 | 0.414 | 0.372 | 0.314 | 0.273 | 0.684 | 0.543 | 0.354 | 0.234 | 0.214 | 0.866 | 0.78 | 0.703 | 0.257 | 0.274 | 0.379 | 0.321 | 0.29 | 0.211 | 0.211
NCI-H1395 | 0.657 | 0.618 | 0.535 | 0.443 | 0.422 | 1.1 | 0.828 | 0.708 | 0.553 | 0.522 | 0.939 | 0.776 | 0.771 | 0.616 | 0.462 | 0.977 | 0.793 | 0.712 | 0.514 | 0.544
NCI-H1437 | 0.973 | 0.88 | 0.753 | 0.354 | 0.389 | 0.832 | 0.731 | 0.425 | 0.143 | 0.155 | 1.03 | 0.76 | 0.549 | 0.221 | 0.183 | 0.524 | 0.527 | 0.381 | 0.247 | 0.207
NCI-H1651 | 0.871 | 0.682 | 0.603 | 0.32 | 0.413 | 0.845 | 0.796 | 0.689 | 0.305 | 0.282 | 0.844 | 0.569 | 0.585 | 0.403 | 0.324 | 0.809 | 0.715 | 0.735 | 0.582 | 0.462

— the supplement of paper PMC10307832
